Laboratory results as given in ChEMBL document CHEMBL1817590, “Hippocampal and cortical neuronal growth mediated by the small molecule natural product clovanemagnolol” (2011).

Legend:
Cortical neurone [1] = experiment: Neurotrophic activity in isolated embryonic mouse embryonic Cortical neurons assessed as induction of neurite outgrowth at 0.1 uM after 48 hrs relative to control; assay type: functional
[2] = Neurotrophic activity in isolated embryonic mouse brain Hippocampal neurons assessed as induction of neurite outgrowth at 1 uM after 48 hrs relative to control; assay type: functional, Hippocampal neuron
[3] = Neurotrophic activity in isolated embryonic mouse brain Hippocampal neurons assessed as induction of neurite outgrowth at 0.1 uM after 48 hrs relative to control; assay type: functional, Hippocampal neuron
Cortical neurone [4] = experiment: Neurotrophic activity in isolated embryonic mouse embryonic Cortical neurons assessed as induction of neurite outgrowth after 48 hrs relative to control; assay type: functional
Hippocampal neuron = experiment: Neurotrophic activity in isolated embryonic mouse brain Hippocampal neurons assessed as induction of neurite outgrowth after 48 hrs relative to control; assay type: functional
[5] = Neurotrophic activity in isolated embryonic mouse brain Hippocampal neurons assessed as induction of neurite outgrowth at 0.01 uM after 48 hrs relative to control; assay type: functional, Hippocampal neuron
Cortical neurone [6] = experiment: Neurotrophic activity in isolated embryonic mouse embryonic Cortical neurons assessed as induction of neurite outgrowth at 1 uM after 48 hrs relative to control; assay type: functional
Cortical neurone [7] = experiment: Neurotrophic activity in isolated embryonic mouse embryonic Cortical neurons assessed as induction of neurite outgrowth at 0.01 uM after 48 hrs relative to control; assay type: functional
[8] = target: T1, Choline O-acetyltransferase (Rattus norvegicus) (UniProt P32738); experiment: Increase in choline acetyltransferase activity in rat brain neurons at […] after 10 days relative to control; assay type: tissue-based
T1 sequence (whole entry): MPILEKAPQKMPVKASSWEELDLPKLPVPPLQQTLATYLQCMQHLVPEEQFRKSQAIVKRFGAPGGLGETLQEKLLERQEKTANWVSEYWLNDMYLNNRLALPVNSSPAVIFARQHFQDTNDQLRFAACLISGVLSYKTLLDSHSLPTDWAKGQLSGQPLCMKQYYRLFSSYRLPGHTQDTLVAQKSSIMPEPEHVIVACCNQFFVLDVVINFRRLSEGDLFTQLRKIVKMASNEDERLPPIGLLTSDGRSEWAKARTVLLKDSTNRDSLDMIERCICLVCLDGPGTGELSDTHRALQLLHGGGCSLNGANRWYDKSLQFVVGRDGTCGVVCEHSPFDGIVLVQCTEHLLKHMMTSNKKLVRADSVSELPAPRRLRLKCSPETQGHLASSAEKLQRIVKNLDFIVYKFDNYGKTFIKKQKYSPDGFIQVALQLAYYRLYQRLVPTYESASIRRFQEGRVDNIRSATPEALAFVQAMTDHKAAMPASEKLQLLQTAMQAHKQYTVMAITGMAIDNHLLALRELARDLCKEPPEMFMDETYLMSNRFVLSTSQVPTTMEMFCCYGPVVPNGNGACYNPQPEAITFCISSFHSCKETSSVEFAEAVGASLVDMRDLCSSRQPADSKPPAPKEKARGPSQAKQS

Activity [8] [%] | SMILES | Activity (Cortical neurone [1]) [%] | Activity [2] [%] | Activity [3] [%] | Activity (Cortical neurone [4]) | Activity (Hippocampal neuron) | Activity [5] [%] | Activity (Cortical neurone [6]) [%] | Activity (Cortical neurone [7]) [%]
– | C=CCc1ccc(O)c(-c2cc(CC=C)ccc2O)c1 [MAGNOLOL] | 55.6 | -69 | 23.9 | Dose-dependent effect | Dose-dependent effect | 50.1 | -74.6 | 20.2
142 | C=CCc1ccc(O)c(-c2cc(CC=C)ccc2O[C@H]2CC(C)(C)[C@@H]3CC[C@]4(C)C[C@]23CC[C@H]4O)c1 [CLOVANEMAGNOLOL] | 22.7 | -83.9 | 26.5 | Dose-dependent effect | Dose-dependent effect | 62.8 | -80.7 | 44.2
